From patent US20140187422A1, “Fungicidal substituted 1--1H-[1,2,4]triazole compounds” (BASF SE, priority 2011, published 2014)
Where two headings read alike, the source gives them in different places.

Tests used:
Septoria tritici [1] = assay: Microtest: activity against leaf blotch on wheat caused by Septoria tritici (Septtr); format: cell-based; details: relative growth vs active compound-free control (100%), 7 days after inoculation
Pyriculana oryzae = format: cell-based; details: relative growth vs control (100%), 7 days after inoculation
Pyrenophora teres = assay: Microtiter test: activity against net blotch Pyrenophora teres on barley (Pyrnte); format: cell-based
Protocol: M3 Activity against net blotch Pyrenophora teres on barley in the microtiter test ([…] stock solutions were mixed according to the ratio, pipetted onto a micro titer plate (MTP) and diluted with water to the stated concentrations. A spore suspension of Pyrenophora teres in an aqueous biomalt or yeast-bactopeptone-glycerine solution was then added. The plates were placed in a water vapor-saturated chamber at a temperature of 18° C. Using an absorption photometer, the MTPs were measured at 405 nm 7 days after the inoculation. The measured parameters were compared to the growth of the active compound-free control variant (100%) and the fungus-free and active compound-free blank value to determine the relative growth in % of the pathogens in the respective active compounds.

Septoria tritici [2] = assay: Green house: curative control of leaf blotch on wheat caused by Septoria tritici (Septtr K7); format: in vivo; details: sprayed 7 days after inoculation, % diseased leaf area, untreated control 80
Protocol: The spray solutions were prepared in several steps: The stock solution were prepared: a mixture of acetone and/or dimethylsulfoxide and the wetting agent/emulsifier Wettol, which is based on ethoxylated alkylphenoles, in a relation (volume) solvent-emulsifier of 99 to 1 was added to 25 mg of the compound to give a total of 5 ml. Water was then added to total volume of 100 ml. This stock solution was diluted with the described solvent-emulsifier-water mixture to the given concentration. G1 Curative control of leaf blotch on wheat caused by Septoria tritici (Septtr K7) Leaves of pot-grown wheat seedling were inoculated with an aqueous spore suspension of Septoria tritici. Then the trial plants were immediately transferred to a humid chamber at 18-22° C. and a relative humidity close to 100%. After 4 days the plants were transferred to a chamber with 18-22° C. and a relative humidity close to 70%. Seven days after inoculation the plants were sprayed to run-off with an aqueous suspension of the active compound or their mixture, prepared as described. Then the plants were transferred back to the chamber with 18-22° C. and a relative humidity close to 70%. After 4 weeks the extent of fungal attack on the leaves was visually assessed as % diseased leaf area.

Row | Structure (SMILES) | Growth 0 (%) at 0.002 ppm Septtr (Septoria tritici [1]) [%] | Growth (%) at 2 ppm Pyrior (Pyriculana oryzae) [%] | Growth (%) at 8 ppm Pymte (Pyrenophora teres) [%] | Growth (%) at 0.5 ppm Pyrior (Pyriculana oryzae) [%] | Growth (%) at 8 ppm Pymte (Pyrenophora teres; relative growth vs control (100%), 7 days after inoculation) [%] | Disease (%) at 250 ppm Septtr K7 (Septoria tritici [2]) [%]
1 | COC(Cn1cncn1)c1ccc(Oc2ccc(Cl)cc2)cc1Cl (stereo not shown) | 72 | – | – | – | – | –
2 | CC(O)(Cn1cncn1)c1ccc(Oc2ccc(Cl)cc2)cc1Cl (stereo not shown) | – | 23 | 62 | – | – | –
3 | CCC(Cn1cncn1)(OC)c1ccc(Oc2ccc(Cl)cc2)cc1Cl (stereo not shown) | – | – | 39 | 47 | – | –
4 | COC(Cn1cncn1)(c1ccc(Oc2ccc(Cl)cc2)cc1Cl)C1CC1 (stereo not shown) [I-1, 1-[2-[2-chloro-4-(4-chlorophenoxy)phenyl]-2-cyclopropyl-2-methoxy-ethyl]-1,2,4-triazole] | 10 | 0 | – | 21 | 12 | 1
